Laboratory results taken from patent US9006451B1, “2-anilinonicotinyl based chalcones useful as potential anticancer agents and process for preparation thereof” (Council of Scientific and Industrial Research, priority 2013, dated 2015).
Like-named read-outs stand apart in the source and are kept apart here.

Columns and labels:
Format in all cases: cell-based
[1] = system: HL-60(TB); assay: NCI 60 human tumor cell line screen (SRB): HL-60(TB); settings: Leukemia, 48 hours, read-out: GI50 values (μM conc.)
Experimental: (§1) The in vitro anticancer activity studies for these chalcone analogues were carried out at the National Cancer Institute, USA.
(§2) The chalcone compounds have been tested at NCI, USA, against sixty human tumor cell lines derived from nine cancer types (leukemia, non-small cell lung cancer, colon cancer, CNS cancer, melanoma cancer, ovarian cancer, renal cancer, prostate cancer and breast cancer). For these compounds results are expressed as growth inhibition (GI50) values as per NCI protocol.
(§3) We describe here the development and implementation of a pilot-scale, in vitro, anticancer drug screen utilizing a panel of 60 human tumor cell lines organized into subpanels representing leukemia, melanoma, and cancers of the lung, colon, kidney, ovary, and central nervous system. The ultimate goal of this disease-oriented screen is to facilitate the discovery of new compounds with potential cell line-specific and/or subpanel-specific antitumor activity. In the current screening protocol, each cell line is inoculated onto microtiter plates, then preincubated for 28 hours. Subsequently, test agents are added in five 10-fold dilutions and the culture is incubated for an additional 48 hours. For each test agent, a dose-response profile is generated. End-point determinations of the cell viability or cell growth are performed by in situ fixation of cells, followed by staining with a protein-binding dye, sulforhodamine B (SRB). The SRB binds to the basic amino acids of cellular macromolecules; the solubilized stain is measured spectrophotometrically to determine relative cell growth or viability in treated and untreated cells.

[2] = system: MOLT-4; assay: NCI 60 human tumor cell line screen (SRB): MOLT-4; settings: MOLT-4, Leukemia, 48 hours, read-out: GI50 values (μM conc.)
Experimental: as §1, §2, §3

[3] = system: SR; assay: NCI 60 human tumor cell line screen (SRB): SR; settings: Leukemia, 48 hours, read-out: GI50 values (μM conc.)
Experimental: as §1, §2, §3

[4] = system: NCI-H226; assay: NCI 60 human tumor cell line screen (SRB): NCI-H226; settings: NCI-H226, Non-small cell lung, 48 hours, read-out: GI50 values (μM conc.)
Experimental: as §1, §2, §3

[5] = system: NCI-H460; assay: NCI 60 human tumor cell line screen (SRB): NCI-H460; settings: NCI-H460, Non-small cell lung, 48 hours, read-out: GI50 values (μM conc.)
Experimental: as §1, §2, §3

[6] = system: HCT-116; assay: NCI 60 human tumor cell line screen (SRB): HCT-116; settings: HCT-116, Colon, 48 hours, read-out: GI50 values (μM conc.)
Experimental: as §1, §2, §3

[7] = system: HT29; assay: NCI 60 human tumor cell line screen (SRB): HT29; settings: HT-29, HT29, Colon, 48 hours, read-out: GI50 values (μM conc.)
Experimental: as §1, §2, §3

[8] = system: KM12; assay: NCI 60 human tumor cell line screen (SRB): KM12; settings: KM12, Colon, 48 hours, read-out: GI50 values (μM conc.)
Experimental: as §1, §2, §3

[9] = system: SW-620; assay: NCI 60 human tumor cell line screen (SRB): SW-620; settings: SW-620, Colon, 48 hours, read-out: GI50 values (μM conc.)
Experimental: as §1, §2, §3

[10] = system: SF-268; assay: NCI 60 human tumor cell line screen (SRB): SF-268; settings: SF-268, CNS, 48 hours, read-out: GI50 values (μM conc.)
Experimental: as §1, §2, §3

[11] = system: SNB-19; assay: NCI 60 human tumor cell line screen (SRB): SNB-19; settings: SNB-19, CNS, 48 hours, read-out: GI50 values (μM conc.)
Experimental: as §1, §2, §3

[12] = system: SNB-75; assay: NCI 60 human tumor cell line screen (SRB): SNB-75; settings: SNB-75, CNS, 48 hours, read-out: GI50 values (μM conc.)
Experimental: as §1, §2, §3

[13] = system: LOX IMVI; assay: NCI 60 human tumor cell line screen (SRB): LOX IMVI; settings: Melanoma, 48 hours, read-out: GI50 values (μM conc.)
Experimental: as §1, §2, §3

[14] = system: MALME-3M; assay: NCI 60 human tumor cell line screen (SRB): MALME-3M; settings: Melanoma, 48 hours, read-out: GI50 values (μM conc.)
Experimental: as §1, §2, §3

[15] = system: UACC-257; assay: NCI 60 human tumor cell line screen (SRB): UACC-257; settings: UACC-257, Melanoma, 48 hours, read-out: GI50 values (μM conc.)
Experimental: as §1, §2, §3

[16] = system: OVCAR-3; assay: NCI 60 human tumor cell line screen (SRB): OVCAR-3; settings: OVCAR-3, Ovarian, 48 hours, read-out: GI50 values (μM conc.)
Experimental: as §1, §2, §3

[17] = system: OVCAR-5; assay: NCI 60 human tumor cell line screen (SRB): OVCAR-5; settings: OVCAR-5, Ovarian, 48 hours, read-out: GI50 values (μM conc.)
Experimental: as §1, §2, §3

[18] = system: OVCAR-8; assay: NCI 60 human tumor cell line screen (SRB): OVCAR-8; settings: OVCAR-8, Ovarian, 48 hours, read-out: GI50 values (μM conc.)
Experimental: as §1, §2, §3

[19] = system: SK-OV-3; assay: NCI 60 human tumor cell line screen (SRB): SK-OV-3; settings: SK-OV-3, Ovarian, 48 hours, read-out: GI50 values (μM conc.)
Experimental: as §1, §2, §3

[20] = system: 786-0; assay: NCI 60 human tumor cell line screen (SRB): 786-0; settings: 786-0, Renal, 48 hours, read-out: GI50 values (μM conc.)
Experimental: as §1, §2, §3

[21] = system: A498; assay: NCI 60 human tumor cell line screen (SRB): A498; settings: A498, Renal, 48 hours, read-out: GI50 values (μM conc.)
Experimental: as §1, §2, §3

[22] = system: ACHN; assay: NCI 60 human tumor cell line screen (SRB): ACHN; settings: Renal, 48 hours, read-out: GI50 values (μM conc.)
Experimental: as §1, §2, §3

[23] = system: TK-10; assay: NCI 60 human tumor cell line screen (SRB): TK-10; settings: TK-10, Renal, 48 hours, read-out: GI50 values (μM conc.)
Experimental: as §1, §2, §3

[24] = system: PC-3; assay: NCI 60 human tumor cell line screen (SRB): PC-3; settings: PC-3, Prostate, 48 hours, read-out: GI50 values (μM conc.)
Experimental: as §1, §2, §3

[25] = system: DU-145; assay: NCI 60 human tumor cell line screen (SRB): DU-145; settings: DU-145, Prostate, 48 hours, read-out: GI50 values (μM conc.)
Experimental: as §1, §2, §3

[26] = system: MCF7; assay: NCI 60 human tumor cell line screen (SRB): MCF7
Experimental: as §1, §2, §3

[27] = system: MDA-MB-231/ATCC; assay: NCI 60 human tumor cell line screen (SRB): MDA-MB-231/ATCC; settings: Breast, 48 hours, read-out: GI50 values (μM conc.)
Experimental: as §1, §2, §3

[28] = system: BT-549; assay: NCI 60 human tumor cell line screen (SRB): BT-549; settings: BT-549, Breast, 48 hours, read-out: GI50 values (μM conc.)
Experimental: as §1, §2, §3

[29] = system: MDA-MB-468; assay: NCI 60 human tumor cell line screen (SRB): MDA-MB-468; settings: MDA-MB-468, Breast, 48 hours, read-out: GI50 values (μM conc.)
Experimental: as §1, §2, §3

[30] = MCF7, Breast, 48 hours, SRB, read-out: GI50 values (μM conc.)
[31] = MCF7, comparison table, read-out: GI50 μM in MCF7

Structure (SMILES): COc1cc(C(=O)/C=C/c2cccnc2Nc2ccccc2)cc(OC)c1OC [6a, (E)-3-(2-(Phenylamino)pyridin-3-yl)-1-(3,4,5-trimethoxyphenyl)prop-2-en-1-one]
- GI50 [1]: 1.52 µM
- GI50 [2]: 2.68 µM
- GI50 [3]: 0.34 µM
- GI50 [4]: 1.23 µM
- GI50 [5]: 1.8 µM
- GI50 [6]: 0.33 µM
- GI50 [7]: 0.51 µM
- GI50 [8]: 0.92 µM
- GI50 [9]: 0.42 µM
- GI50 [10]: 1.55 µM
- GI50 [11]: 1.48 µM
- GI50 [12]: 1.13 µM
- GI50 [13]: 0.49 µM
- GI50 [14]: 1.92 µM
- GI50 [15]: 1.51 µM
- GI50 [16]: 0.42 µM
- GI50 [17]: 1.54 µM
- GI50 [18]: 1.27 µM
- GI50 [19]: 1.6 µM
- GI50 [20]: 1.29 µM
- GI50 [21]: 1.42 µM
- GI50 [22]: 1.28 µM
- GI50 [23]: 1.82 µM
- GI50 [24]: 1.1 µM
- GI50 [25]: 0.72 µM
- GI50 [26, 30]: 0.35 µM
- GI50 [26, 31]: 0.35 µM
- GI50 [27]: 1.4 µM
- GI50 [28]: 1.26 µM
- GI50 [29]: 0.66 µM

Structure (SMILES): COc1cc(C(=O)/C=C/c2cccnc2Nc2ccc(Cl)cc2)cc(OC)c1OC [6ax, (E)-3-(2-(4-Chlorophenylamino)pyridin-3-yl)-1-(3,4,5-trimethoxyphenyl)prop-2-en-1-one]
- GI50 [1]: 1.59 µM
- GI50 [2]: 2.55 µM
- GI50 [3]: 0.77 µM
- GI50 [4]: 1.16 µM
- GI50 [5]: 1.92 µM
- GI50 [6]: 0.56 µM
- GI50 [7]: 1.43 µM
- GI50 [8]: 1.83 µM
- GI50 [9]: 0.95 µM
- GI50 [10]: 1.72 µM
- GI50 [11]: 1.52 µM
- GI50 [12]: 1.63 µM
- GI50 [13]: 1.27 µM
- GI50 [14]: 1.91 µM
- GI50 [15]: 1.5 µM
- GI50 [16]: 1.31 µM
- GI50 [17]: 1.74 µM
- GI50 [18]: 1.63 µM
- GI50 [19]: 1.72 µM
- GI50 [20]: 1.46 µM
- GI50 [21]: 1.4 µM
- GI50 [22]: 1.77 µM
- GI50 [23]: 1.87 µM
- GI50 [24]: 1.44 µM
- GI50 [25]: 1.63 µM
- GI50 [26, 30]: 1.02 µM
- GI50 [26, 31]: 1.02 µM
- GI50 [27]: 1.49 µM
- GI50 [28]: 1.5 µM
- GI50 [29]: 1.29 µM

Structure (SMILES): COc1ccc(Nc2ncccc2/C=C/C(=O)c2cc(OC)c(OC)c(OC)c2)cc1 [6h, (E)-3-(2-(4-Methoxyphenylamino)pyridin-3-yl)-1-(3,4,5-trimethoxyphenyl)prop-2-en-1-one]
- GI50 [2]: 2.09 µM
- GI50 [3]: 0.46 µM
- GI50 [4]: 1.37 µM
- GI50 [5]: 2.01 µM
- GI50 [6]: 1.02 µM
- GI50 [7]: 1.6 µM
- GI50 [8]: 1.69 µM
- GI50 [9]: 1.2 µM
- GI50 [10]: 1.77 µM
- GI50 [11]: 2.14 µM
- GI50 [12]: 1.15 µM
- GI50 [13]: 1.23 µM
- GI50 [14]: 1.4 µM
- GI50 [15]: 1.53 µM
- GI50 [16]: 1.64 µM
- GI50 [17]: 1.97 µM
- GI50 [18]: 1.56 µM
- GI50 [19]: 2.72 µM
- GI50 [20]: 1.69 µM
- GI50 [21]: 3.19 µM
- GI50 [22]: 1.55 µM
- GI50 [24]: 2.82 µM
- GI50 [25]: 1.59 µM
- GI50 [26, 30]: 0.69 µM
- GI50 [26, 31]: 0.69 µM
- GI50 [27]: 1.94 µM
- GI50 [28]: 1.58 µM
- GI50 [29]: 1.15 µM

Structure (SMILES): COc1cc(Nc2ncccc2/C=C/C(=O)c2cc(OC)c(OC)c(OC)c2)cc(OC)c1OC [6v, (E)-1-(3,4,5-Trimethoxyphenyl)-3-(2-(3,4,5-trimethoxyphenylamino)pyridin-3-yl)prop-2-en-1-one]
- GI50 [1]: 8 µM
- GI50 [2]: 6.72 µM
- GI50 [3]: 3.6 µM
- GI50 [4]: 10.8 µM
- GI50 [5]: 3.61 µM
- GI50 [6]: 3.77 µM
- GI50 [7]: 5.51 µM
- GI50 [8]: 6.5 µM
- GI50 [9]: 4.81 µM
- GI50 [10]: 8.19 µM
- GI50 [11]: 6.8 µM
- GI50 [12]: 4.12 µM
- GI50 [13]: 4.51 µM
- GI50 [14]: 15.3 µM
- GI50 [15]: 8.52 µM
- GI50 [16]: 7.45 µM
- GI50 [17]: 16.3 µM
- GI50 [18]: 6.7 µM
- GI50 [19]: 11.1 µM
- GI50 [20]: 5.98 µM
- GI50 [21]: 2.64 µM
- GI50 [22]: 5.34 µM
- GI50 [23]: 1.55 µM
- GI50 [24]: 7.81 µM
- GI50 [25]: 6.22 µM
- GI50 [26, 30]: 3.97 µM
- GI50 [26, 31]: 3.97 µM
- GI50 [27]: 12.6 µM
- GI50 [28]: 14.3 µM
- GI50 [29]: 6.78 µM
